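All cell lines were grown in 96-well plates and treated with compound for 48 hours. GI50 marks 50% less growth. TGI is the concentration that stops growth completely.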
Tests used:
Test in all cases: growth of human tumour cells (NCI), 48 h
[1] = test system: OVCAR-8 ovarian
[2] = test system: CCRF-CEM leukemia
[3] = test system: UACC-62 melanoma
[4] = test system: SK-MEL-5 melanoma
[5] = test system: MCF7 breast
[6] = test system: TK-10 renal
[7] = test system: LOX IMVI melanoma
[8] = test system: PC-3 prostate
[9] = test system: NCI-H460 lung
[10] = test system: SF-268 CNS
[11] = test system: MDA-MB-231 breast
[12] = test system: HT29 colon
[13] = test system: DU-145 prostate
[14] = test system: SW-620 colon
[15] = test system: MDA-MB-435
[16] = test system: U251 CNS
[17] = test system: SR leukemia
[18] = test system: COLO 205 colon
[19] = test system: HL-60(TB) leukemia
[20] = test system: OVCAR-5 ovarian
[21] = test system: A498 renal
[22] = test system: HCT-15 colon
[23] = test system: SF-295 CNS
[24] = test system: SK-MEL-2 melanoma
[25] = test system: HCT-116 colon
[26] = test system: A549 NSCLC
[27] = test system: NCI-H23 lung
[28] = test system: CAKI-1 renal
[29] = test system: K-562 leukemia
[30] = test system: M14 melanoma
[31] = test system: SK-OV-3 ovarian
[32] = test system: EKVX NSCLC
[33] = test system: NCI-H522 lung
[34] = test system: 786-0 renal
[35] = test system: RXF 393 renal
[36] = test system: MALME-3M melanoma
[37] = test system: MDA-MB-468 breast
[38] = test system: OVCAR-4 ovarian
[39] = test system: BT-549 breast
[40] = test system: SK-MEL-28 melanoma
[41] = test system: ACHN renal
[42] = test system: SNB-75 CNS
[43] = test system: SNB-19 CNS
[44] = test system: UO-31 renal
[45] = test system: SF-539 CNS
[46] = test system: HOP-62 NSCLC
[47] = test system: T-47D breast
[48] = test system: HOP-92 NSCLC
[49] = test system: SN12C renal
[50] = test system: IGROV1 ovarian
[51] = test system: MOLT-4 leukemia
[52] = test system: UACC-257 melanoma
[53] = test system: RPMI-8226 leukemia
[54] = test system: HS 578T breast
[55] = test system: OVCAR-3 ovarian
[56] = test system: HCC-2998 colon
[57] = test system: NCI/ADR-RES ovarian
[58] = test system: KM12 colon
[59] = test system: NCI-H226 lung

Work on C[C@H]1[C@H](C)CC[C@]2(COC(=O)CCC(=O)NCC#CCN3CCNCC3)CC[C@]3(C)C(=CC[C@@H]4[C@@]5(C)CCCNC(C)(C)[C@@H]5CC[C@]43C)[C@H]12 yielded a GI50 [1] of 19 µM, a TGI [1] of 37.9 µM and a GI50 [2] of 16.8 µM. It also gave a TGI [2] of 48.2 µM, a GI50 [3] of 14 µM and a TGI [3] of 27.2 µM. It also gave a GI50 [4] of 14.2 µM, a TGI [4] of 31.9 µM and a GI50 [5] of 12.7 µM. It also gave a TGI [5] of 25.3 µM, a GI50 [6] of 18.9 µM and a TGI [6] of 37.4 µM. The GI50 [7] was 20.5 µM, the TGI [7] was 44.7 µM and the GI50 [8] was 11 µM. For the same compound, the TGI [8] was 27.3 µM, the GI50 [9] was 16.5 µM and the TGI [9] was 30.1 µM. The GI50 [10] was 17.9 µM, the TGI [10] was 40.1 µM and the GI50 [11] was 18.2 µM. It also gave a TGI [11] of 32.1 µM, a GI50 [12] of 12.3 µM and a TGI [12] of 26.1 µM. The GI50 [13] was 17.5 µM, the TGI [13] was 31.2 µM and the GI50 [14] was 15.5 µM. The TGI [14] was 28.9 µM, the GI50 [15] was 14.1 µM and the TGI [15] was 27.5 µM. For the same compound, the GI50 [16] was 16.9 µM, the TGI [16] was 32 µM and the GI50 [17] was 15.4 µM. The TGI [17] was 61.5 µM, the GI50 [18] was 18.3 µM and the TGI [18] was 36 µM. For the same compound, the GI50 [19] was 4.98 µM, the TGI [19] was 27.1 µM and the GI50 [20] was 17.2 µM. For the same compound, the TGI [20] was 30.9 µM, the GI50 [21] was 15.1 µM and the TGI [21] was 28.3 µM. For the same compound, the GI50 [22] was 14.5 µM, the TGI [22] was 27.6 µM and the GI50 [23] was 22.5 µM. The TGI [23] was 57.2 µM, the GI50 [24] was 17.7 µM and the TGI [24] was 33.4 µM. It also gave a GI50 [25] of 11.5 µM, a TGI [25] of 23.6 µM and a GI50 [26] of 14.9 µM. It also gave a TGI [26] of 28.1 µM, a GI50 [27] of 16.2 µM and a TGI [27] of 30.7 µM. For the same compound, the GI50 [28] was 14.7 µM, the TGI [28] was 28.4 µM and the GI50 [29] was 6.02 µM. For the same compound, the TGI [29] was 20.5 µM, the GI50 [30] was 15.7 µM and the TGI [30] was 30.9 µM. For the same compound, the GI50 [31] was 19.4 µM, the TGI [31] was 44.7 µM and the GI50 [32] was 15.9 µM. It also gave a TGI [32] of 32.2 µM, a GI50 [33] of 16.4 µM and a TGI [33] of 33.7 µM. It also gave a GI50 [34] of 15 µM, a TGI [34] of 34.6 µM and a GI50 [35] of 18.2 µM. It also gave a TGI [35] of 45.6 µM, a GI50 [36] of 15.8 µM and a TGI [36] of 29.2 µM. It also gave a GI50 [37] of 10.7 µM, a TGI [37] of 25.9 µM and a GI50 [38] of 25.1 µM. For the same compound, the TGI [38] was 72.9 µM, the GI50 [39] was 16.2 µM and the TGI [39] was 32.7 µM. The GI50 [40] was 16.4 µM, the TGI [40] was 30 µM and the GI50 [41] was 16.4 µM. For the same compound, the TGI [41] was 30 µM, the GI50 [42] was 13.3 µM and the TGI [42] was 37.8 µM. It also gave a GI50 [43] of 15.7 µM, a TGI [43] of 29.1 µM and a GI50 [44] of 12 µM. It also gave a TGI [44] of 24.3 µM, a GI50 [45] of 13.9 µM and a TGI [45] of 26.8 µM. The GI50 [46] was 18.9 µM, the TGI [46] was 36.8 µM and the GI50 [47] was 19 µM. It also gave a TGI [47] of 44.4 µM, a GI50 [48] of 13.2 µM and a TGI [48] of 41.7 µM. The GI50 [49] was 14.7 µM, the TGI [49] was 28.8 µM and the GI50 [50] was 14.3 µM. It also gave a TGI [50] of 27.3 µM, a GI50 [51] of 9.96 µM and a TGI [51] of 32.9 µM. The GI50 [52] was 16.5 µM, the TGI [52] was 33.5 µM and the GI50 [53] was 17 µM. It also gave a TGI [53] of 94.5 µM, a GI50 [54] of 20.9 µM and a TGI [54] of 55.7 µM. For the same compound, the GI50 [55] was 14.1 µM, the TGI [55] was 27.6 µM and the GI50 [56] was 15.1 µM. The TGI [56] was 29.2 µM, the GI50 [57] was 17.4 µM and the TGI [57] was 34.6 µM. The GI50 [58] was 17.5 µM, the TGI [58] was 34 µM and the GI50 [59] was 27.3 µM. For the same compound, the TGI [59] was > 100 µM.
